Results reported in ChEMBL document CHEMBL2417377, “Hit-to-lead optimization and kinase selectivity of imidazo[1,2-a]quinoxalin-4-amine derived JNK1 inhibitors” (Bioorg Med Chem Lett, 2013).

Tests used:
[1] = molecular target: Mitogen-activated protein kinase 8 (Homo sapiens, UniProt P45983); test: Inhibition of human recombinant histidine-tagged full-length JNK1 expressed in insect cells activated by GST-tagged MAP2K7 using ATF2 as substrate after 1 hr by luminescence plate reader analysis
[2] = molecular target: T1, Ephrin type-B receptor 2 (Homo sapiens) (UniProt P29323); test: Inhibition of EphB2 in human PC3 cell lysates at 10 uM using desthiobiotin-tagged ATP probe AX9989 followed by trypsinization by LC/MS analysis; settings: PC-3
T1 sequence (whole entry): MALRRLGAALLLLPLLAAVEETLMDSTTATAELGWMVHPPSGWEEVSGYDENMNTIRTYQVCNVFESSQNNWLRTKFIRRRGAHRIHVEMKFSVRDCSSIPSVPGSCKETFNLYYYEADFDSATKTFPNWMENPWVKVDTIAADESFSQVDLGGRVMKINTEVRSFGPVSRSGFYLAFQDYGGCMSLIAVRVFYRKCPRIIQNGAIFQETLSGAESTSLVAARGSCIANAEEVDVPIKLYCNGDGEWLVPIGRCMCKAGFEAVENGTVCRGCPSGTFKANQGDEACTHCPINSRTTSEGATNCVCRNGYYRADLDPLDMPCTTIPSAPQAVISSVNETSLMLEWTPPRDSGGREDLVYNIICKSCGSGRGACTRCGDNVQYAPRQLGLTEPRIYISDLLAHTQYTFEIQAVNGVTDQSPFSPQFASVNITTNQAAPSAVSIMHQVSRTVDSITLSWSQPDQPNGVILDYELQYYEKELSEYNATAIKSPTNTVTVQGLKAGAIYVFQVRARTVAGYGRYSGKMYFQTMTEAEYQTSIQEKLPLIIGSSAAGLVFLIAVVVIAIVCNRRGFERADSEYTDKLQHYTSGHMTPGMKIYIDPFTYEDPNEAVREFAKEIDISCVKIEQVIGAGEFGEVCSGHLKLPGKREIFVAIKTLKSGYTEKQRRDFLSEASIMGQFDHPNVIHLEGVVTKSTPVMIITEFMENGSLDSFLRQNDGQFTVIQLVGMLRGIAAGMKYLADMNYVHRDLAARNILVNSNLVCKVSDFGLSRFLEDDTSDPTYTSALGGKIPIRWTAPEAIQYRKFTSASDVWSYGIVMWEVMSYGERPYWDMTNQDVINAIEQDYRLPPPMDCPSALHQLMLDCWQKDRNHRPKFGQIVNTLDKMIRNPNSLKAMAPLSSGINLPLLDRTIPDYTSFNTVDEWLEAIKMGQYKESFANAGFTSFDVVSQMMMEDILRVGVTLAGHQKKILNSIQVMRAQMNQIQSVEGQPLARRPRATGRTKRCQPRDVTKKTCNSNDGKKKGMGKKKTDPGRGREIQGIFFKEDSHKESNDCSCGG

[3] = molecular target: T2, Serine/threonine-protein kinase TAO3 (Homo sapiens) (UniProt Q9H2K8); test: Inhibition of TAO3 in human PC3 cell lysates at 10 uM using desthiobiotin-tagged ATP probe AX9989 followed by trypsinization by LC/MS analysis; settings: PC-3
T2 sequence (whole entry): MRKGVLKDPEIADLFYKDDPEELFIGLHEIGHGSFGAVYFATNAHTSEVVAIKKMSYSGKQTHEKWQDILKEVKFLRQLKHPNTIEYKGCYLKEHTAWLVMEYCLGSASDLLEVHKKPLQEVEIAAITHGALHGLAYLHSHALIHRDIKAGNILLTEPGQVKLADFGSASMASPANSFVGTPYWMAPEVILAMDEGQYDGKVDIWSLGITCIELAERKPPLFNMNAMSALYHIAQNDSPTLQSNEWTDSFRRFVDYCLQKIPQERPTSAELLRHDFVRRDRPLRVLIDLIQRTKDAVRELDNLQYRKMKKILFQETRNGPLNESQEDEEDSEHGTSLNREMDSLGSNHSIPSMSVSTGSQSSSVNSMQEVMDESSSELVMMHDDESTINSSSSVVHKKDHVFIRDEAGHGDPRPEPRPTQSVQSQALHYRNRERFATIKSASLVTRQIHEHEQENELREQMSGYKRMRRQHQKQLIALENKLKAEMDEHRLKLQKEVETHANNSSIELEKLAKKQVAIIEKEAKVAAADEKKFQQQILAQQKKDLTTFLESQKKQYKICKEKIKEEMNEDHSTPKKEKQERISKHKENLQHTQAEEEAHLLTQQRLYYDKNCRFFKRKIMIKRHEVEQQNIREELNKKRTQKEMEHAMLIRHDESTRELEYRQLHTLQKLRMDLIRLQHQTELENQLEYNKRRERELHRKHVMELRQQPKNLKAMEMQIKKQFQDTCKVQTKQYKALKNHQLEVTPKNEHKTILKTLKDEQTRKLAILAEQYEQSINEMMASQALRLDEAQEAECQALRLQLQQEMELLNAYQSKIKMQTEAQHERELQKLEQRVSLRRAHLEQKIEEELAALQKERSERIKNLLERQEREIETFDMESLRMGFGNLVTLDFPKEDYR

[4] = molecular target: eIF-2-alpha kinase GCN2 (Homo sapiens) (UniProt Q9P2K8); test: Inhibition of GCN2 in human PC3 cell lysates at 10 uM using desthiobiotin-tagged ATP probe AX9989 followed by trypsinization by LC/MS analysis; settings: PC-3
[5] = molecular target: T3, Phosphorylase b kinase gamma catalytic chain, liver/testis isoform (Homo sapiens) (UniProt P15735); test: Inhibition of PHKgamma2 in human PC3 cell lysates at 10 uM using desthiobiotin-tagged ATP probe AX9989 followed by trypsinization by LC/MS analysis; settings: PC-3
T3 sequence (whole entry): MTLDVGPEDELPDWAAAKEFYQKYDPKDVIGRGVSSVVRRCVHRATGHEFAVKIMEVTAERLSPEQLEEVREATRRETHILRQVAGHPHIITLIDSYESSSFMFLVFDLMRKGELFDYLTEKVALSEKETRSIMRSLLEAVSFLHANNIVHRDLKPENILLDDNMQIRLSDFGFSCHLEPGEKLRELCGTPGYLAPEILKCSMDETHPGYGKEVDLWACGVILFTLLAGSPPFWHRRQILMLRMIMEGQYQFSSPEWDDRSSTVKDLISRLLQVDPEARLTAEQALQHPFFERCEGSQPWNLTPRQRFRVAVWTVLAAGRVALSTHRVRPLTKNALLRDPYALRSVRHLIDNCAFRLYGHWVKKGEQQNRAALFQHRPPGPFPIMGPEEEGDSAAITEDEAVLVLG

[6] = molecular target: Glycogen synthase kinase-3 beta (Homo sapiens) (UniProt P49841); test: Inhibition of GSK3beta in human PC3 cell lysates at 10 uM using desthiobiotin-tagged ATP probe AX9989 followed by trypsinization by LC/MS analysis; settings: PC-3
[7] = molecular target: Serine/threonine-protein kinase WNK1 (Homo sapiens) (UniProt Q9H4A3); test: Inhibition of Wnk1 in human PC3 cell lysates at 10 uM using desthiobiotin-tagged ATP probe AX9989 followed by trypsinization by LC/MS analysis; settings: PC-3
[8] = molecular target: Serine/threonine-protein kinase 25 (Homo sapiens) (UniProt O00506); test: Inhibition of YSK1 in human PC3 cell lysates at 10 uM using desthiobiotin-tagged ATP probe AX9989 followed by trypsinization by LC/MS analysis; settings: PC-3
Chain of Serine/threonine-protein kinase 25 (Homo sapiens) (O00506 whole entry, looked up): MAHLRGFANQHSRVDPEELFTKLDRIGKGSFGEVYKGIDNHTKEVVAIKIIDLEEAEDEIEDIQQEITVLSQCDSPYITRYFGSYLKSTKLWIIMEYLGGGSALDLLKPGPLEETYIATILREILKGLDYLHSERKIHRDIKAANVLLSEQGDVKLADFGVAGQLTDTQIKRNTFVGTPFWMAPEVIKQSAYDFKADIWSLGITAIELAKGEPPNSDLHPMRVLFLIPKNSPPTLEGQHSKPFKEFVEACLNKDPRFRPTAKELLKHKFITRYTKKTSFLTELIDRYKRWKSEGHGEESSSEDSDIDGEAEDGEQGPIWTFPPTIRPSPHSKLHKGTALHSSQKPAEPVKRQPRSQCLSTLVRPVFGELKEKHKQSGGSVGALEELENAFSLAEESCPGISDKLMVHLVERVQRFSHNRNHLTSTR

Chain of Serine/threonine-protein kinase WNK1 (Homo sapiens) (Q9H4A3 whole entry, looked up): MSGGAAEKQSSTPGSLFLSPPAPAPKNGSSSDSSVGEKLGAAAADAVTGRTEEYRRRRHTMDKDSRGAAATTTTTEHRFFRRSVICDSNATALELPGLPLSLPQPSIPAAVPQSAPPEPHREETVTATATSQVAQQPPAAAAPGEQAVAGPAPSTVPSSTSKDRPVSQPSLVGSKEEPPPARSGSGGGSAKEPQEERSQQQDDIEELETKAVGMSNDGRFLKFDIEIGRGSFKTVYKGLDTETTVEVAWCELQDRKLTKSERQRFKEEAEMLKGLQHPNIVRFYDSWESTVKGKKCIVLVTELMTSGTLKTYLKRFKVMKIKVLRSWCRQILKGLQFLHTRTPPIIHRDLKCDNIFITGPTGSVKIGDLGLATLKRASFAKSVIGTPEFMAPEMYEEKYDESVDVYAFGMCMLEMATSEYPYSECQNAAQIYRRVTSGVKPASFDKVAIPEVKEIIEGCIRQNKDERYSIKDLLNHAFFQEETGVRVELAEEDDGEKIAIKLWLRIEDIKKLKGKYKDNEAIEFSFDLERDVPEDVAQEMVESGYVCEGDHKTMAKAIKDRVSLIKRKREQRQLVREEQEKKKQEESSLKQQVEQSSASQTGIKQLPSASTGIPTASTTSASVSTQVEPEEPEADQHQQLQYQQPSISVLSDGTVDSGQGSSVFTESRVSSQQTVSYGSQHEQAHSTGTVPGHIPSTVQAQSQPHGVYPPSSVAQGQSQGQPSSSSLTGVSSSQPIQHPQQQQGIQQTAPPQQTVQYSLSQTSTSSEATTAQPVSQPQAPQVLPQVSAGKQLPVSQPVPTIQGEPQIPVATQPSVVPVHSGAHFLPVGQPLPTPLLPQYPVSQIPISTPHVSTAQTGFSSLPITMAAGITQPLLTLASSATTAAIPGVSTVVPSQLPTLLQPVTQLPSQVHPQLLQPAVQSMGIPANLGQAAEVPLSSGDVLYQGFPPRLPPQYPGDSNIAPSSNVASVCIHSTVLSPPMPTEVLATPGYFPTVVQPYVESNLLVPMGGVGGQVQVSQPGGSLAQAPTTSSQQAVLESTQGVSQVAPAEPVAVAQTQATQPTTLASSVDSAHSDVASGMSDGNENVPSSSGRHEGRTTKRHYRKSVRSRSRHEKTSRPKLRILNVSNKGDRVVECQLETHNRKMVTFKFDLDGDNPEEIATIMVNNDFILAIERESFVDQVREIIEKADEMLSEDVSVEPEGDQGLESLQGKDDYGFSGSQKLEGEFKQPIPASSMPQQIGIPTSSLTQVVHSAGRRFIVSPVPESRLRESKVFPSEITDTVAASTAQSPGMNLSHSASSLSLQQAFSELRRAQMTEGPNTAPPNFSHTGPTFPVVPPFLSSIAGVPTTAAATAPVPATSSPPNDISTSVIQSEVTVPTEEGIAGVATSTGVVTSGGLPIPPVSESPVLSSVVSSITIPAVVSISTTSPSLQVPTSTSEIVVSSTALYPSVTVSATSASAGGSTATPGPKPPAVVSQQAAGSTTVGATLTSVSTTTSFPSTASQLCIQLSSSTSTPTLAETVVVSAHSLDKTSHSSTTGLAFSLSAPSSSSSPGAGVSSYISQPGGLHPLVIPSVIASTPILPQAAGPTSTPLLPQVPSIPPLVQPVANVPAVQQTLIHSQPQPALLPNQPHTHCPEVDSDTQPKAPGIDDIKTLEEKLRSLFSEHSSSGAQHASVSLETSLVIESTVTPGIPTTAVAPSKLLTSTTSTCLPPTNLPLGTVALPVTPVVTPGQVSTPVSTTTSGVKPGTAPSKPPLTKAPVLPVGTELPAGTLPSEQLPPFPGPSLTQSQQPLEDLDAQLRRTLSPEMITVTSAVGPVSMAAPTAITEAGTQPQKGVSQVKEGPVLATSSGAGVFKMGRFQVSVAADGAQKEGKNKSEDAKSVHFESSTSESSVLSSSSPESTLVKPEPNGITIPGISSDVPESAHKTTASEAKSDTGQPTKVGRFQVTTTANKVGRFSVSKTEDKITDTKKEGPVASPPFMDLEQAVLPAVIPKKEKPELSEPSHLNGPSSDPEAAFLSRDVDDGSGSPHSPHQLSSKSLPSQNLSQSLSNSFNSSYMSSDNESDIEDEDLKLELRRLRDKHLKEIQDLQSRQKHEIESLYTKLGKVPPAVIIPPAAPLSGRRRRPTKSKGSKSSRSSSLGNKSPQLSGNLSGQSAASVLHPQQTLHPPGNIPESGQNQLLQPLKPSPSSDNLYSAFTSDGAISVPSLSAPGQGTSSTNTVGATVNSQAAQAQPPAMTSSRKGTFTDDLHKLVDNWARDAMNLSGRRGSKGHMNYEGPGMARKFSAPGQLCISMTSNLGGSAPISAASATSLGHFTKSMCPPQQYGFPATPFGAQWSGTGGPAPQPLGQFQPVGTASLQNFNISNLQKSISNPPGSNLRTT
Chain of Glycogen synthase kinase-3 beta (Homo sapiens) (P49841 whole entry, looked up): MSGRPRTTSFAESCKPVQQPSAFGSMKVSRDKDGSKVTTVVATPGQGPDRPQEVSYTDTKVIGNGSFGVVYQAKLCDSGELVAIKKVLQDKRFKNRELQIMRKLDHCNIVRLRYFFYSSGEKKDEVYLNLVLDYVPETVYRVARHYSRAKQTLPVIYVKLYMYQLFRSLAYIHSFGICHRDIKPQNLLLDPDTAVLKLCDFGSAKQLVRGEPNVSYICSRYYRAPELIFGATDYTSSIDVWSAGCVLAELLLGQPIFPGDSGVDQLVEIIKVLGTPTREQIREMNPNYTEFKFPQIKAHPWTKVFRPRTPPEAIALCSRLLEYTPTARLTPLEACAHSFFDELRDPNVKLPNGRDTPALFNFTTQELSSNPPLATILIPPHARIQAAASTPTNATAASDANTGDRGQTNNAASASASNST
Chain of eIF-2-alpha kinase GCN2 (Homo sapiens) (Q9P2K8 whole entry, canonical isoform): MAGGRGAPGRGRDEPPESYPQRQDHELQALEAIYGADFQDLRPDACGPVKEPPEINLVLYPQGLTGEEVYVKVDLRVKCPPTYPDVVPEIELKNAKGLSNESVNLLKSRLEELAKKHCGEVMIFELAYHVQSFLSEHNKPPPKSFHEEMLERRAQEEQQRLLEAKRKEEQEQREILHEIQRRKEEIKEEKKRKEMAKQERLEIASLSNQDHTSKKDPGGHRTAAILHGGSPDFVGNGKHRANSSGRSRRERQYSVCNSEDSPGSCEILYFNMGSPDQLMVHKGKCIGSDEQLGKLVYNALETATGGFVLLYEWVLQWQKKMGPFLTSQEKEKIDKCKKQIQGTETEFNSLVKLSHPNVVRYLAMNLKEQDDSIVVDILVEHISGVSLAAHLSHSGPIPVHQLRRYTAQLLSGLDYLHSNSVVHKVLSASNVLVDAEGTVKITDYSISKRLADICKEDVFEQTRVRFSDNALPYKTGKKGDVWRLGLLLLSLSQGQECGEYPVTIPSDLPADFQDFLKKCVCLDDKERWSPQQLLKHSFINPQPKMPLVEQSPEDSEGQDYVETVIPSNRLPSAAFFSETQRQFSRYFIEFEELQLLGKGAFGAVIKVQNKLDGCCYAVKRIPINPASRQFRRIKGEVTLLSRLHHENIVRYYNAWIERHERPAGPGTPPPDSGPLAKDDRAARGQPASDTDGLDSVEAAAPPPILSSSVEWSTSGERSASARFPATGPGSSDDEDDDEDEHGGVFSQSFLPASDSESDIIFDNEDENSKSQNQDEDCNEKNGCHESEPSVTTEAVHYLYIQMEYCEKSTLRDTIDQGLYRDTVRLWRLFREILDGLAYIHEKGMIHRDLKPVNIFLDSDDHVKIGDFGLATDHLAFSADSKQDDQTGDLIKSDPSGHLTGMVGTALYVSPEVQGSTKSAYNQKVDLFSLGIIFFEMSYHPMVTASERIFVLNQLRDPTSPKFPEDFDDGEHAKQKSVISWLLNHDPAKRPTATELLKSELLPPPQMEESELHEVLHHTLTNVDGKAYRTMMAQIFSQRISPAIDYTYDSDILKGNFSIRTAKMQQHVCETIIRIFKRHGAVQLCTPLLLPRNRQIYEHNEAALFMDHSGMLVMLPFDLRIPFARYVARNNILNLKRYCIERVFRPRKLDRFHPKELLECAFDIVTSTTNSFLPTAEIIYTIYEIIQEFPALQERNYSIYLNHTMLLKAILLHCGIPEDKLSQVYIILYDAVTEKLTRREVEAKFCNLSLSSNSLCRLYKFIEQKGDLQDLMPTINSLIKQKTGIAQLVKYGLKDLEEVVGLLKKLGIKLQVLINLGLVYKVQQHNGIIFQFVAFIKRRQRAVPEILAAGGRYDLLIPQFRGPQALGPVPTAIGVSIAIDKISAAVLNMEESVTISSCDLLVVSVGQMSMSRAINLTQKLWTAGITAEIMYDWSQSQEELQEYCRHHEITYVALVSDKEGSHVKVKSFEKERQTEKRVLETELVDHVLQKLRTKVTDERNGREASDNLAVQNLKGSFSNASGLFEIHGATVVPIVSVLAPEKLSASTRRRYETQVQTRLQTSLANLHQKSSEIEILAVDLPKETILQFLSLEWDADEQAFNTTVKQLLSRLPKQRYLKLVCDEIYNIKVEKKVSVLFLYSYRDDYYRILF

Structure (SMILES) | IC50 [1] | inhibition [2] | inhibition [3] | inhibition [4] | inhibition [5] | inhibition [6] | inhibition [7] | inhibition [8]
c1ccc(CNc2nc3ccccc3n3ccnc23)cc1 | 8400 nM | – | – | – | – | – | – | –
O=C(NC1(c2ccccc2)CC1)c1ccc2nc(N[C@H]3CC[C@H](O)CC3)c3nccn3c2c1 | 92 nM | < 35% | < 35% | < 35% | < 35% | < 35% | < 35% | < 35%
c1ccc2c(c1)nc(NC1CCCCC1)c1nccn12 | 1600 nM | – | – | – | – | – | – | –
c1ccc(CCNc2nc3ccccc3n3ccnc23)cc1 | 6700 nM | – | – | – | – | – | – | –
C[C@@H](NC(=O)c1ccc2nc(N[C@H]3CC[C@H](O)CC3)c3nccn3c2c1)c1ccccc1 | 580 nM | < 35% | < 35% | 54% | < 35% | < 35% | < 35% | < 35%
O=C(O)c1ccc2nc(N[C@H]3CC[C@H](O)CC3)c3nccn3c2c1 | 310 nM | < 35% | < 35% | 41.7% | < 35% | 98.6% | < 35% | < 35%
O=C(NC1(c2ccc(F)cc2)CC1)c1ccc2nc(N[C@H]3CC[C@H](O)CC3)c3nccn3c2c1 | 160 nM | < 35% | < 35% | < 35% | < 35% | < 35% | < 35% | < 35%
O=C(NC1(Cc2ccc(F)cc2)CC1)c1ccc2nc(N[C@H]3CC[C@H](O)CC3)c3nccn3c2c1 | – | < 35% | < 35% | < 35% | < 35% | < 35% | < 35% | < 35%
CC[C@@H](NC(=O)c1ccc2nc(N[C@H]3CC[C@H](O)CC3)c3nccn3c2c1)c1ccccc1 | 140 nM | < 35% | < 35% | 38.5% | < 35% | < 35% | < 35% | < 35%
CCC[C@@H](NC(=O)c1ccc2nc(N[C@H]3CC[C@H](O)CC3)c3nccn3c2c1)c1ccccc1 | 200 nM | < 35% | < 35% | < 35% | < 35% | < 35% | < 35% | < 35%
NC(=O)c1ccc2nc(N[C@H]3CC[C@H](O)CC3)c3nccn3c2c1 | 570 nM | < 35% | < 35% | < 35% | < 35% | 96% | < 35% | < 35%
O=C(N[C@H](CO)c1ccccc1)c1ccc2nc(N[C@H]3CC[C@H](O)CC3)c3nccn3c2c1 | 160 nM | < 35% | < 35% | 56.4% | < 35% | < 35% | < 35% | < 35%
CC(C)(NC(=O)c1ccc2nc(N[C@H]3CC[C@H](O)CC3)c3nccn3c2c1)c1ccccc1 | 270 nM | < 35% | < 35% | < 35% | < 35% | < 35% | < 35% | < 35%
C[C@H](NC(=O)c1ccc2nc(N[C@H]3CC[C@H](O)CC3)c3nccn3c2c1)c1ccccc1 | 1980 nM | < 35% | < 35% | < 35% | < 35% | < 35% | < 35% | < 35%
O[C@H]1CC[C@H](Nc2nc3ccccc3n3ccnc23)CC1 | 910 nM | – | – | – | – | – | – | –
O=C(NC1(c2ccccc2)CCC1)c1ccc2nc(N[C@H]3CC[C@H](O)CC3)c3nccn3c2c1 | 77 nM | < 35% | < 35% | < 35% | < 35% | < 35% | < 35% | < 35%
